Test results reported in patent publication US20210253562A1, “ACYLSUFONAMIDE COMPOUNDS USEFUL AS EP3 RECEPTOR ANTAGONISTS” (Janssen Pharmaceutica NV, priority 2018, published 2021).

Target: T1, EP3 membrane (EP3 receptor) (Homo sapiens, UniProt P43115)
T1 construct: purchased Millipore HTS092M
T1 sequence (P43115 1-390): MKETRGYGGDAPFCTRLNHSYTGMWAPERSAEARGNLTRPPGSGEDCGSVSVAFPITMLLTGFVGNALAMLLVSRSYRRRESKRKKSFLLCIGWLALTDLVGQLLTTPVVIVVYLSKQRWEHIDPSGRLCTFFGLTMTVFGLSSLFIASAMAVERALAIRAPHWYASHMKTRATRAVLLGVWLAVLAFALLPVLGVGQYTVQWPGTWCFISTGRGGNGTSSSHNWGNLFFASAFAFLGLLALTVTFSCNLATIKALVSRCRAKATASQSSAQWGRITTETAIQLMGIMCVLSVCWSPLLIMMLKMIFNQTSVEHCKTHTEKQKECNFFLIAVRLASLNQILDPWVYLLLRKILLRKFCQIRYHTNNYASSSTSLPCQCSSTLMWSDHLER
Assay: [3H]-PGE2 binding; EP3 competition binding (SPA)
Experimental: Biological Example 1: [3H]-PGE2 Binding
EP3 competition binding was determined using the following materials and experimental conditions: • Beads=Perkin Elmer RPNQ0001 • [3H]PGE2=Perkin Elmer NET428025UC • 384-well plate=Perkin Elmer 6007290 • EP3 membrane=Millipore HTS092M • Membrane concentration=2 μg/well • Beads concentration=0.25 mg/well • [3H]-PGE2=2 nM; DMSO—0.1% • Binding buffer=50 mM Tris, 10 mM MgCl2, 1 mM EDTA, PH 7.4.
The reaction system was prepared by mixing 5 μl of unlabeled compound; 5 μl of diluted [3H]-PGE2; 5 μl of diluted membrane; and 15 μl of SPA beads dissolved in binding buffer (adding in the following sequence: Unlabeled compound, [3H]-PGE2, Membrane and Beads).
The binding buffer was removed from refrigeration (@ 4° C.) and allowed to warm to room temperature. Test compound (@ stock concentration of […] in DMSO) was serial dilutes (1:3) with 100% DMSO using Echo plate. Diluted test compound (30 nL) was dispensed to the 384-well assay plate (using Echo 550 Labcyte System). To each well was then added assay buffer (5 μl) and each well was spun. Beads were weighed out, dissolved in assay buffer to a concentration of 0.25 mg/15 μl. Original membrane was diluted with assay buffer to a concentration of 2 μg/5 μl. Original [3H]-PGE2 with diluted with assay buffer to a concentration of 12 nM. To each test well were then added diluted [3H]-PGE2 (5 μl), diluted membrane (5 μl), and dissolved beads (15 μl). The plate was equilibrated at room temperature on a plate shaker for 2 hours and then read with a TOPCOUNT scintillation plate reader. Results were analyzed using a Prism program with non-linear regression, one-site fit for Ki.

SMILES | Ki
Cc1cc(S(=O)(=O)NC(=O)NC/C(F)=C2\CCCc3cnn(Cc4ccc(Cl)cc4Cl)c32)sc1C [Compound #142, (Z)—N-((2-(1-(2,4-dichlorobenzyl)-1,4,5,6-tetrahydro-7H-indazol-7-ylidene)-2-fluoroethyl)carbamoyl)-4,5-dimethylthiophene-2-sulfonamide] | 8 nM
O=C(NC/C(F)=C1\COCc2cnn(C3CCN(c4ccc(F)cc4)CC3)c21)NS(=O)(=O)c1cc(Cl)c(Cl)s1 [Compound #144, (E)-4,5-dichloro-N-((2-fluoro-2-(1-(1-(4-fluorophenyl)piperidin-4-yl)-1,4-dihydropyrano[4,3-c]pyrazol-7(6H)-ylidene)ethyl)carbamoyl)thiophene-2-sulfonamide] | 62 nM
O=C(NC/C(F)=C1\COCc2onc(Cc3ccc(Cl)cc3Cl)c21)NS(=O)(=O)c1cc(Cl)c(Cl)s1 [Compound #145, (E)-4,5-dichloro-N-((2-(3-(2,4-dichlorobenzyl)-5H-pyrano[4,3-d]isoxazol-4(7H)-ylidene)-2-fluoroethyl)carbamoyl)thiophene-2-sulfonamide] | 6 nM
COCn1nc(Cc2ccc(Cl)cc2Cl)c2c1COC/C2=C(/F)CNC(=O)NS(=O)(=O)c1cc(Cl)c(Cl)s1 [Compound #146, (E)-4,5-dichloro-N-((2-(3-(2,4-dichlorobenzyl)-1-(methoxymethyl)-1,7-dihydropyrano[3,4-c]pyrazol-4(5H)-ylidene)-2-fluoroethyl)carbamoyl)thiophene-2-sulfonamide] | 22 nM
O=C(NC/C=C1\CCCc2cnn(C3CCN(Cc4ccccc4)CC3)c21)NS(=O)(=O)c1cc(Cl)c(Cl)s1 [Compound #148, (E)-N-((2-(1-(1-benzylpiperidin-4-yl)-1,4,5,6-tetrahydro-7H-indazol-7-ylidene)ethyl)carbamoyl)-4,5-dichlorothiophene-2-sulfonamide] | 6 nM
CN1CCC(n2ncc3c2/C(=C/CNC(=O)NS(=O)(=O)c2cc(Cl)c(Cl)s2)CCC3)CC1 [Compound #151, (E)-4,5-dichloro-N-((2-(1-(1-methylpiperidin-4-yl)-1,4,5,6-tetrahydro-7H-indazol-7-ylidene)ethyl)carbamoyl)thiophene-2-sulfonamide] | 102 nM
Cn1ccc(S(=O)(=O)NC(=O)NC/C=C2\CCCc3cnn(Cc4ccc(Cl)cc4Cl)c32)n1 [Compound #153, (E)-N-((2-(1-(2,4-dichlorobenzyl)-1,4,5,6-tetrahydro-7H-indazol-7-ylidene)ethyl)carbamoyl)-1-methyl-1H-pyrazole-3-sulfonamide] | 22 nM
O=C(NC/C(F)=C1\CCCc2cnn(C3CCN(c4ccc(F)cc4)CC3)c21)NS(=O)(=O)c1cc(Cl)c(Cl)s1 [Compound #154, (Z)-4,5-dichloro-N-((2-fluoro-2-(1-(1-(4-fluorophenyl)piperidin-4-yl)-1,4,5,6-tetrahydro-7H-indazol-7-ylidene)ethyl)carbamoyl)thiophene-2-sulfonamide] | 13 nM
O=C(NC/C(F)=C1\CCCc2cnn(CCc3ccc(C(F)(F)F)cc3)c21)NS(=O)(=O)c1cc(Cl)c(Cl)s1 [Compound #157, (Z)-4,5-dichloro-N-((2-fluoro-2-(1-(4-(trifluoromethyl)phenethyl)-1,4,5,6-tetrahydro-7H-indazol-7-ylidene)ethyl)carbamoyl)thiophene-2-sulfonamide] | 467 nM
Cc1nc(C)c(S(=O)(=O)NC(=O)NC/C(F)=C2\CCCc3cnn(Cc4ccc(Cl)cc4Cl)c32)s1 [Compound #158, (Z)—N-((2-(1-(2,4-Dichlorobenzyl)-1,4,5,6-tetrahydro-7H-indazol-7-ylidene)-2-fluoroethyl)carbamoyl)-2,4-dimethylthiazole-5-sulfonamide] | 32 nM
COc1ccc(S(=O)(=O)NC(=O)NC/C(F)=C2\CCCc3cnn(Cc4ccc(Cl)cc4Cl)c32)cc1F [Compound #159, (Z)—N-((2-(1-(2,4-Dichlorobenzyl)-1,4,5,6-tetrahydro-7H-indazol-7-ylidene)-2-fluoroethyl)carbamoyl)-3-fluoro-4-methoxybenzenesulfonamide] | 22 nM
